Entries after “also recorded” stand apart in the source; their conditions may differ.
Legend:
connexins = assay: Connexin protein levels after autophagy blockade; format: cell-based; settings: A375.52 cells, treatment over 24 hours, FIG. 4B
Description: FIGS. 4A&B presents exemplary data showing an assessment of connexin inhibition on autophagic flux and autophagic blockade on connexin protein levels. […] Tubulin as a loading control. H2O=water control, CBX=Carbenoxolone, Hep=1-Eleptanol, Oct=1-octanol, D=DMSO, HCQ=Hydroxychloroquine. Connexin protein levels were also assessed for possible modification of autophagic flux. For this purpose, hydroxychloroquine, a known autophagy inhibitor and clinically available medication was used. […] Specific autophagy inhibition may be assessed using shRNA (infra).

A375.52 cells = assay: Scratch assay, cell migration; format: cell-based; settings: over 24 hours, FIG. 5C
Description: (§1) FIG. 5A-C presents exemplary data showing combinatory effects of hydroxychloroquine (HCQ) and 1-octanol on melanoma cell viability and death. […] 4-methyl-heptanol (1 mM) as negative control.
(§2) The effect of a combined inhibition of GJIC and autophagy was assessed, making use of Promega Cell-Titer Glo and Trypan blue exclusion assay to assess cell viability and cell death, respectively (FIG. 5A and FIG. 5B). […] (FIG. 5C) Cell migration was measured as distance traveled from the edge of a wound and not as percent wound closure.

melanoma cell lines = assay: Promega Cell-Titer Glo cell viability; format: cell-based; settings: two melanoma cell lines, 72 hours, FIG. 5A
Description: as §1, §2

A375.52 = assay: Trypan blue exclusion assay, cell death; format: cell-based; settings: A375.52, 72 hours, FIG. 5B
Description: as §1, §2

[1] = system: gap junction intercellular communication; assay: Microinjection imaging assay, spread of reporter dye; format: cell-based; settings: time-lapse microscopy, FIGS. 7A&B
From the text: FIGS. 7A&B presents exemplary data Showing cell-cell communication in Glioblastoma Stem Cells (GSCs) cells with live imaging.
The functional status of overall connexin activity after autophagy inhibition will be addressed. […] To measure this, a microinjection imaging assay will be used. One cell is co-injected with a large fluorescent IgG that is unable to leave the parental cell along with a reporter dye that is capable of spreading to adjacent cells. Combining this with time-lapse microscopy, spread of the reporter dye (Lucifer yellow, 2NBDG-a fluorescent glucose analog) can be monitored, see FIGS. 7A&B. The spread of the dye is attenuated when using gap junction inhibitors, including carbenoxolone and 1-octanol. Utilization of multiple assessments of the gap junction intercellular communication, i.e. mRNA expression, protein levels and functional activity levels may pinpoint the particular modulation of GJIC that occurs with autophagic blockade in melanoma cells. […] Additionally, shRNA against shATG5, another key autophagy protein, could be utilized to determine if there were different effects.

autophagic flux [2] = assay: Western blot of LC3 II/I ratio and p62 levels after connexin (GJIC) inhibitors; format: cell-based; settings: A375.52 melanoma cells, treatment over 24 hours, FIG. 4A
From the text: FIGS. 4A&B presents exemplary data showing an assessment of connexin inhibition on autophagic flux and autophagic blockade on connexin protein levels. […] Tubulin as a loading control. H2O=water control, CBX=Carbenoxolone, Hep=1-Eleptanol, Oct=1-octanol, D=DMSO, HCQ=Hydroxychloroquine.
Connexin protein levels were examined within various melanoma cell lines, see FIG. 3. […] Connexins 43 and 26 has been studied previously in melanoma, and both also have shown relationships with autophagy. […] GJIC inhibition was explored, using three known connexin inhibitors, 1-octanol, 1-heptanol and carbenoxolone, the former of which is clinically available and is labeled as a food additive by the Food and Drug Administration, which is known to affect autophagic flux. GJIC inhibition was measured by changes noted in LC3 II/I ratios and p62 levels. (FIG. 4A).

autophagic flux [3] = settings: pharmacologic blockage of GJIC, reference [21]; cited from earlier work
Cx 36 and 50 = settings: reference [49]; cited from earlier work
connexins 26, 32, and 43 = settings: reference [49]; cited from earlier work

CCN(CCO)CCCC(C)Nc1ccnc2cc(Cl)ccc12 (racemic) [hydroxychloroquine, (RS)-2-{{4-{(7-chloroquinolin-4-yl)amino}pentyl}(ethyl)amino}ethanol]
levels of connexins 43 and 46 (connexins): opposite effects on levels of connexins 43 and 46
protein levels of connexins (connexins): affects the protein levels of specific connexins; also recorded: does affect protein levels of connexins, but not consistently
cell migration (distance traveled from the edge of a wound) (A375.52 cells): no effect

CCCCCCCCO [1-octanol]
cell viability (melanoma cell lines): only small effects
cell death (A375.52): only small effects
spread of the reporter dye (Lucifer yellow, 2NBDG) [1]: attenuated
cell migration (distance traveled from the edge of a wound) (A375.52 cells): no effect
p62 levels (autophagic flux [2]): increased p62 levels
total LC3 levels (autophagic flux [2]): changes in total LC3 levels

CC1(C)[C@@H](O)CC[C@]2(C)[C@H]3C(=O)C=C4[C@H]5C[C@@](C)(C(=O)O)CC[C@]5(C)CC[C@@]4(C)[C@]3(C)CC[C@@H]12 [18α glycyrrhetinic acid]
autophagic flux (autophagic flux [3]): decreased autophagic flux

CC1(C)[C@@H](OC(=O)CCC(=O)O)CC[C@]2(C)[C@H]3C(=O)C=C4[C@@H]5C[C@@](C)(C(=O)O)CC[C@]5(C)CC[C@@]4(C)[C@]3(C)CC[C@@H]12 [carbenoxolone]
spread of the reporter dye (Lucifer yellow, 2NBDG) [1]: attenuated
LC3 II/I ratio (autophagic flux [2]): without clear changes in LC3 II/I ratio
p62 levels (autophagic flux [2]): decreased p62 levels somewhat

OC(c1cc(C(F)(F)F)nc2c(C(F)(F)F)cccc12)C1CCCCN1 (stereo not drawn) [mefloquine]
block of connexin activity (Cx 36 and 50): block activity
block of connexin activity (connexins 26, 32, and 43): would require much higher doses to affect

Source: US20170182026A1, “Anti-Metastasis Treatment of Melanoma” (University Hospitals Cleveland Medical Center, priority 2015, published 2017)
